According to patent publication US20210308089A1, “METHODS OF TREATING AND/OR PREVENTING VIRAL INFECTIONS AND/OR DISEASES CAUSED BY VIRUSES IN A SUBJECT IN NEED THEREOF” (priority 2020, published 2021):

System: patients of the REDUCE-IT and earlier EPA placebo-controlled trials
Assay: Example 3: adverse events by risk ratio, icosapent ethyl vs placebo (candidate categories; infectious disease terms of interest)
Conditions: R-I
[1] = Age-Related Macular Degeneration

CC/C=C\C/C=C\C/C=C\C/C=C\C/C=C\CCCC(=O)OCC [icosapent ethyl, eicosapentaenoic acid ethyl ester] was tested, and the “Risk Ratio (95% CI): Cognitive Decline: Cognitive and attention disorders and disturbances (AE table)” value was 1.000 (0.141 to 7.097) −1, the “Risk Ratio (95% CI): Cognitive Decline: Cognitive disturbances (AE table)” value was “[No cases in study]” and the “Risk Ratio (95% CI): Cough (AE table)” value was 1.000 (0.841 to 1.189) −1. For the same compound, the “Risk Ratio (95% CI): Cystic Fibrosis (AE table)” value was “[No cases in study]”, the “Risk Ratio (95% CI): Decreased Appetite (AE table)” value was 2.584 (1.329 to 5.024) −4 and the “Risk Ratio (95% CI): Deep Venous Thromboembolism (AE table)” value was 0.625 (0.205 to 1.909) 2. For the same compound, the “Risk Ratio (95% CI): Depression: Depressed mood disorders and disturbances (AE table)” value was 1.106 (0.861 to 1.422) −1, the “Risk Ratio (95% CI): Depression: Depressive disorders (AE table)” value was 1.123 (0.867 to 1.454) −1 and the “Risk Ratio (95% CI): Depression: Depressive disorders - Agitated depression (AE table)” value was “[2 drugs vs 0 PBO]”. The “Risk Ratio (95% CI): Depression: Depressive disorders - Depression (AE table)” value was 1.097 (0.843 to 1.428) −1, the “Risk Ratio (95% CI): Depression: Depressive disorders - Major depression (AE table)” value was 3.001 (0.312 to 28.836) −4 and the “Risk Ratio (95% CI): Depression: Depressive disorders - Persistent depressive disorder (AE table)” value was 2.000 (0.181 to 22.053) −3. The “Risk Ratio (95% CI): Depression: Mood alterations - Depressed mood (AE table)” value was 1.000 (0.290 to 3.452) −1, the “Risk Ratio (95% CI): Depression: Mood alterations - Depressive symptom (AE table)” value was 0.500 (0.045 to 5.513) 3 and the “Risk Ratio (95% CI): Depression: Mood alterations with depressive symptoms (AE table)” value was 0.857 (0.288 to 2.549) 1. For the same compound, the “Risk Ratio (95% CI): Dermatitis psoriasiform (AE table)” value was “[1 drug vs 0 PBO]”, the “Risk Ratio (95% CI): Dermatitis, allergic (AE table)” value was 0.250 (0.071 to 0.885) 4 and the “Risk Ratio (95% CI): Diabetic Nephropathy (AE table)” value was 0.909 (0.387 to 2.139) 1. The “Risk Ratio (95% CI): ESRD (AE table)” value was 0.667 (0.111 to 3.989) 2, the “Risk Ratio (95% CI): Ear infection (AE table)” value was 0.821 (0.515 to 1.307) 1 and the “Risk Ratio (95% CI): Embolism and Thrombosis (AE table)” value was 1.064 (0.716 to 1.581) −1. The “Risk Ratio (95% CI): Emphysema (AE table)” value was 0.600 (0.294 to 1.266) 2, the “Risk Ratio (95% CI): Epilepsy (AE table)” value was 1.000 (0.063 to 15.986) −1 and the “Risk Ratio (95% CI): Erectile dysfunction (AE table)” value was 0.784 (0.535 to 1.151) 2. For the same compound, the “Risk Ratio (95% CI): Furuncle (AE table)” value was 0.500 (0.171 to 1.462) 3, the “Risk Ratio (95% CI): Gastroenteritis, viral (AE table)” value was 0.789 (0.525 to 1.185) 2 and the “Risk Ratio (95% CI): Gastroesophageal reflux (AE table)” value was 0.333 (0.090 to 1.231) 4. For the same compound, the “Risk Ratio (95% CI): Gingivitis (AE table)” value was 0.500 (0.171 to 1.462) 3, the “Risk Ratio (95% CI): Glomerulonephritis and Nephrotic Syndrome (AE table)” value was “[0 drug vs 4 PBO]” and the “Risk Ratio (95% CI): Guttate psoriasis (AE table)” value was “[1 drug vs 0 PBO)”. For the same compound, the “Risk Ratio (95% CI): Helicobacter infection (AE table)” value was 0.556 (0.186 to 1.657) 3, the “Risk Ratio (95% CI): Hepatitis C (AE table)” value was “[1 drug vs 0 PBO]” and the “Risk Ratio (95% CI): Herpes Zoster (AE table)” value was 0.960 (0.695 to 1.325) 1. For the same compound, the “Risk Ratio (95% CI): Herpes simplex (AE table)” value was 0.625 (0.205 to 1.909) 2, the “Risk Ratio (95% CI): Hyperglycemia (AE table)” value was 0.764 (0.562 to 1.037) 2 and the “Risk Ratio (95% CI): Hyperkalemia (AE table)” value was 0.582 (0.377 to 0.898) 3. For the same compound, the “Risk Ratio (95% CI): Hypertension (AE table)” value was 0.930 (0.804 to 1.077) 1, the “Risk Ratio (95% CI): Hypertensive Crisis (AE Table)” value was 0.698 (0.439 to 1.110) 2 and the “Risk Ratio (95% CI): Hypokalemia (AE table)” value was 1.064 (0.784 to 1.445) −1. The “Risk Ratio (95% CI): Hypomagnesemia (AE table)” value was 0.675 (0.422 to 1.078) 2, the “Risk Ratio (95% CI): IgA Nephropathy (AE table)” value was “[No cases in study]” and the “Risk Ratio (95% CI): Infected bite (AE table)” value was 0.714 (0.227 to 2.249) 2. For the same compound, the “Risk Ratio (95% CI): Influenza (AE table)” value was 0.971 (0.824 to 1.144) 1, the “Risk Ratio (95% CI): Influenza like illness (AE table)” value was 0.852 (0.489 to 1.483) 1 and the “Risk Ratio (95% CI): Jaundice cholestatic (AE table)” value was “[4 drug vs 0 PBO]”. The “Risk Ratio (95% CI): Large intestine polyps (AE table)” value was 0.385 (0.137 to 1.078) 4, the “Risk Ratio (95% CI): Limb Fractures and Dislocations (AE table)” value was 0.883 (0.541 to 1.439) 1 and the “Risk Ratio (95% CI): Lupus (AE table)” value was “[0 drugs vs 1 PBO]”. The “Risk Ratio (95% CI): Male Infertility (AE table)” value was “[No cases in study]”, the “Risk Ratio (95% CI): Microalbuminuria (AE table)” value was 0.214 (0.062 to 0.745) 4 and the “Risk Ratio (95% CI): Migraine (AE table)” value was 2.751 (0.877 to 8.631) −4. The “Risk Ratio (95% CI): Mucosal inflammation (AE table)” value was 0.600 (0.144 to 2.510) 2, the “Risk Ratio (95% CI): Multiple Sclerosis (AE table)” value was “[0 drugs vs 1 PBO]” and the “Risk Ratio (95% CI): Muscle spasms (AE table)” value was 0.579 (0.421 to 0.795) 3. The “Risk Ratio (95% CI): NASH (AE table)” value was 0.167 (0.020 to 1.384) 5, the “Risk Ratio (95% CI): NASH for b/l NFS >0.675 (AE table)” value was 0.252 (0.028 to 2.251) 4 and the “Risk Ratio (95% CI): NASH+Hepatic Steatosis for NFS >0.675 (AE table)” value was 0.740 (0.342 to 1.601) 2. For the same compound, the “Risk Ratio (95% CI): Nasopharyngitis, Mild Severity (AE table)” value was 0.975 (0.840 to 1.133) 1, the “Risk Ratio (95% CI): Nephrolithiasis (AE table)” value was 1.050 (0.777 to 1.419) −1 and the “Risk Ratio (95% CI): Nephropathies (AE table)” value was 0.679 (0.380 to 1.213) 2. The “Risk Ratio (95% CI): Nephrotic Syndrome (AE table)” value was “[0 drug vs 1 PBO]”, the “Risk Ratio (95% CI): Orthopnea (AE table)” value was 0.500 (0.151 to 1.660) 3 and the “Risk Ratio (95% CI): PMS/Dysmenorrhea (AE table)” value was “[No cases in study]”. For the same compound, the “Risk Ratio (95% CI): PTSD (AE table)” value was 0.667 (0.111 to 3.989) 2, the “Risk Ratio (95% CI): Pancytopenia (AE table)” value was 0.556 (0.186 to 1.657) 3 and the “Risk Ratio (95% CI): Pneumonia (AE table)” value was 0.950 (0.807 to 1.118) 1. The “Risk Ratio (95% CI): Polycystic Ovarian Syndrome (AE table)” value was “[No cases in study]”, the “Risk Ratio (95% CI): Proteinuria (AE table)” value was 0.609 (0.314 to 1.181) 2 and the “Risk Ratio (95% CI): Psoriasis (AE table)” value was 1.750 (0.949 to 3.230) −3. For the same compound, the “Risk Ratio (95% CI): Psoriatic Conditions (AE table)” value was 1.875 (1.024 to 3.435) −3, the “Risk Ratio (95% CI): Psychosis: Psychotic disorder NEC (AE table)” value was 0.500 (0.045 to 5.513) 3 and the “Risk Ratio (95% CI): Pulmonary Edema (AE table)” value was 0.556 (0.257 to 1.202) 3. For the same compound, the “Risk Ratio (95% CI): Rental Transplant (AE table)” value was “[No cases in study]”, the “Risk Ratio (95% CI): Respiratory Failure (AE table)” value was 0.909 (0.497 to 1.664) 1 and the “Risk Ratio (95% CI): Respiratory tract infection (AE table)” value was 0.939 (0.629 to 1.401) 1. For the same compound, the “Risk Ratio (95% CI): Rheumatoid Arthritis (AE table)” value was “[0 drug vs 3 PBO]”, the “Risk Ratio (95% CI): Rhinitis (AE table)” value was 0.727 (0.383 to 1.383) 2 and the “Risk Ratio (95% CI): Schizophrenia NEC (AE table)” value was 0.500 (0.045 to 5.513) 3. The “Risk Ratio (95% CI): Sepsis (AE table)” value was 0.786 (0.499 to 1.237) 2, the “Risk Ratio (95% CI): Severe chronic obstructive pulmonary disease (AE table)” value was 0.857 (0.458 to 1.607) 1 and the “Risk Ratio (95% CI): Severe dermatitis, allergic (AE table)” value was 0.250 (0.028 to 2.236) 4. The “Risk Ratio (95% CI): Severe gastroenteritis (AE table)” value was 0.667 (0.273 to 1.630) 2, the “Risk Ratio (95% CI): Severe sepsis (AE table)” value was 0.759 (0.437 to 1.318) 2 and the “Risk Ratio (95% CI): Severe systemic inflammatory response syndrome (AE table)” value was 0.167 (0.020 to 1.384) 5. The “Risk Ratio (95% CI): Severe urinary tract infection (AE table)” value was 0.650 (0.324 to 1.305) 2, the “Risk Ratio (95% CI): Sickle Cell Disease (AE table)” value was “[No cases in study]” and the “Risk Ratio (95% CI): Systemic inflammatory response syndrome (AE table)” value was 0.250 (0.053 to 1.177) 4. The “Risk Ratio (95% CI): Tooth infection (AE table)” value was 0.690 (0.391 to 1.217) 2, the “Risk Ratio (95% CI): Ulcerative Colitis (AE table)” value was “[0 drug vs 1 PBO]” and the “Risk Ratio (95% CI): Vascular hypertensive disorder (AE table)” value was 0.914 (0.796 to 1.050) 1. The “Risk Ratio (95% CI): Vulvovaginal mycotic infection (AE table)” value was 0.455 (0.158 to 1.307) 3, the “Risk Ratio (95% CI): Wheezing (AE table)” value was 0.639 (0.379 to 1.076) 2 and the ARR (ADHD) was 0.0%. For the same compound, the NNT (ADHD) was −8362005, the “Risk Ratio (95% CI)” value (ADHD) was 1.000 (0.141 to 7.097) −1 and the ARR (Acute Myeloid Leukaemia) was 0.0%. The NNT (Acute Myeloid Leukaemia) was −8362005, the “Risk Ratio (95% CI)” value (Acute Myeloid Leukaemia) was 1.000 (0.141 to 7.097) −1 and the ARR [1] was 0.0%. For the same compound, the NNT [1] was −4088, the “Risk Ratio (95% CI)” value [1] was 2.000 (0.181 to 22.053) −3 and the ARR (Alzheimer's Disease) was 0.0%. The NNT (Alzheimer's Disease) was −3344802, the “Risk Ratio (95% CI)” value (Alzheimer's Disease) was 1.000 (0.290 to 3.452) −1 and the ARR (Asthma) was 0.1%. For the same compound, the NNT (Asthma) was −1019 and the “Risk Ratio (95% CI)” value (Asthma) was 1.076 (0.742 to 1.560) −1.
